Reference: article PMC2680961, “Homologous desensitization of signalling by the alpha (α) isoform of the human thromboxane A2 receptor: A specific role for nitric oxide signalling” (Biochimica et Biophysica Acta, 2007)
Positions count from the first letter of the chain named.

How the values were obtained:
TPα^S340A = target: T1, TPα^S340A (Homo sapiens, UniProt P21731, S340A); assay: [3H]SQ29,548 radioligand binding, Scatchard analysis, HEK.TPα^S340A
T1 construct: expressed in transfected cells
T1 sequence (P21731 1-343 S340A): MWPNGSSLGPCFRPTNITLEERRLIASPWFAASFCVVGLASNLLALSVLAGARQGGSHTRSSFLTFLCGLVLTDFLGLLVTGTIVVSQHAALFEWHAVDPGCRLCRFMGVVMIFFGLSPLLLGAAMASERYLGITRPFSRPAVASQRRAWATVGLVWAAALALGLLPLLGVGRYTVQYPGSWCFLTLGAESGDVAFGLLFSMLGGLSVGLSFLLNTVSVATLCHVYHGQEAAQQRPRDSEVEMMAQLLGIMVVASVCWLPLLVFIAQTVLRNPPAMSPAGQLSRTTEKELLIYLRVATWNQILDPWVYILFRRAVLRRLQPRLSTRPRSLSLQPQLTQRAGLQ
Procedure: (§1) Cells were harvested by centrifugation at 500×g at 4 °C for 5 min and washed three times with ice-cold Ca^2+/Mg^2+-free phosphate-buffered saline (PBS). TP radioligand binding assays were carried out at 30 °C for 30 min in 100 μl reactions in the presence of 0–40 nM [^3H] […] Protein determinations were carried out using the Bradford assay.
(§2) Radioligand binding and Scatchard analysis data were analysed using GraphPad Prisim V4.0 programme (GraphPad Software Inc., San Diego CA, USA). Statistical analyses were carried out using the unpaired Student's t test using the Statworks Analysis Package. p-values ≤ 0.01 indicated statistically significant differences.

TP^S145A,Δ328 = target: T2, TP^S145A,Δ328 (Homo sapiens, UniProt P21731, S145A); assay: [3H]SQ29,548 radioligand binding, Scatchard analysis, HEK.TP^S145A,Δ328
T2 construct: expressed in transfected cells
T2 sequence (P21731 1-328 S145A): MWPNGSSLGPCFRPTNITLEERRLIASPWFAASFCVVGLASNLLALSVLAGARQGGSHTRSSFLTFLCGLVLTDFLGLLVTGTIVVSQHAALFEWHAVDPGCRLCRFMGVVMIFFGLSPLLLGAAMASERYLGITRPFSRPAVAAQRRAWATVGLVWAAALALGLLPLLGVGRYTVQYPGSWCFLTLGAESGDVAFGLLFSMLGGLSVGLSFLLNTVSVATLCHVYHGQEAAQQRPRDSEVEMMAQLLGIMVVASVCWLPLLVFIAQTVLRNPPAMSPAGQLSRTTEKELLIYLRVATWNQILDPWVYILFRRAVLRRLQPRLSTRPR
Procedure: as §1, §2

TPα^S329A = target: T3, TPα^S329A (Homo sapiens, UniProt P21731, S329A); assay: [3H]SQ29,548 radioligand binding, Scatchard analysis, HEK.TPα^S329A
T3 construct: expressed in transfected cells
T3 sequence (P21731 1-343 S329A): T1 sequence (P21731 1-343 S340A) with S329A, A340S
Procedure: as §1, §2

TPα^S331A = target: T4, TPα^S331A (Homo sapiens, UniProt P21731, S331A); assay: [3H]SQ29,548 radioligand binding, Scatchard analysis, HEK.TPα^S331A
T4 construct: expressed in transfected cells
T4 sequence (P21731 1-343 S331A): T1 sequence (P21731 1-343 S340A) with S331A, A340S
Procedure: as §1, §2

TPα^S145A = target: T5, TPα^S145A (Homo sapiens, UniProt P21731, S145A); assay: [3H]SQ29,548 radioligand binding, Scatchard analysis, HEK.TPα^S145A
T5 construct: expressed in transfected cells
T5 sequence (P21731 1-343 S145A): T1 sequence (P21731 1-343 S340A) with S145A, A340S
Procedure: as §1, §2

In the case of `O=C(O)CCC/C=C\C[C@@H]1[C@H](CNNC(=O)Nc2ccccc2)[C@H]2CC[C@@H]1O2` [SQ29,548], the “Bmax (pmol/mg protein ± S.E.M.)” value (TPα^S340A) is reported as 5.3 ± 0.04 pmol/mg protein, the “Bmax (pmol/mg protein ± S.E.M.)” value (TP^S145A,Δ328) is reported as 3.83 ± 0.03 pmol/mg protein and the “Bmax (pmol/mg protein ± S.E.M.)” value (TPα^S329A) is reported as 4.43 ± 0.04 pmol/mg protein. For the same molecule, the “Bmax (pmol/mg protein ± S.E.M.)” value (TPα^S331A) was 4.00 ± 0.04 pmol/mg protein and the “Bmax (pmol/mg protein ± S.E.M.)” value (TPα^S145A) was 3.03 ± 0.04 pmol/mg protein.
